pIC50: −log10 of the molar value.
How the values were obtained:
NF2−/− Schwannoma cells = assay: Growth inhibition of NF2 deficient cells (CellTiter-Glo); assay type: cell-based; settings: 1 uM concentration, FIG. 6
Method: (§1) NF2 deficient cell lines were cultured in the appropriate medium. Once enough cells have propagated, plates of all adherent lines were seeded at 5,000-10,000 cells/well (depending on cell line) in a total volume of 50 μL, and plates of all suspension lines at 10,000-20,000 cells/well (depending on cell line) in a total volume of 50 μL. Plates were placed in a humidified cell culture incubator overnight to allow adherent cells to attach.
(§2) 10 mM stocks of each PAK inhibitor compound in DMSO were prepared. Dilutions were performed with media to provide 1% DMSO 2× stock solutions of each PAK inhibitor compound.
(§3) 50 μL of all PAK inhibitor compound 2× stocks were added to appropriate wells already containing 50 μL of cells and medium to expose cells to the final concentrations of compounds required. 50 μL of media was added to media and cell control wells and 50 μL of mix to vehicle control wells. At the same time as drug exposure, a CTG (CellTiter-Glo Assay) assay was performed on the 0 hr plate to obtain a 0 hr count. Cells were exposed to PAK inhibitor compounds or a DMSO control for 72 hours. Following the 72 hour exposure period, all remaining plates were assayed using CTG.
(§4) At the end of the 72 hour exposure period, plates were removed for a CTG assay from 37° C., 5% CO2 incubator and place on the bench at room temperature for 30 mins. 100 μL CTG reagent was added to each well, mixed for 2 minutes, followed by a further 10 minute incubation at room temperature. Luminescence for each well was determined.
(§5) Growth inhibition percent was calculated using the following equation: (Growth %=(Sample Value−T0Ave)/(Max−T0Ave)*100).
NF2^−/− Schwannoma cells were treated with a DMSO control or a PAK inhibitor compound (1 uM concentration) disclosed in Examples 101, 122, or 190.

[1] = test system: NF2−/− mesothelioma cells (NCI-H226); assay: as above; assay type: cell-based; settings: 0 μM-30 μM, 72 hours, FIG. 7
Method: as §1, §2, §3, §4, §5
NF2^−/− mesothelioma cells (e.g., NCI-H226 cells) were treated with varying concentrations of a PAK inhibitor compound disclosed in Examples 33, 84, or 122.

EBC-1 cells = assay: Growth inhibition of PAK1 amplified NSCLC cells (CellTiter-Glo); assay type: cell-based; settings: 0 μM-30 μM, 72 hours, FIG. 8
Method: as §1, with “The PAK1 amplified” for “NF2 deficient”
as §2
as §3, with “50” for “50 μL of all PAK inhibitor compound 2× stocks were added to appropriate wells already containing 50 μL of cells and medium to expose cells to the final concentrations of compounds required. 50”
as §4, §5

NCI-H520 cells = assay: as above; assay type: cell-based; settings: 0 μM-30 μM, 72 hours, FIG. 9
Method: as §1, with “The PAK1 amplified” for “NF2 deficient”
as §2
as §3, with “50” for “50 μL of all PAK inhibitor compound 2× stocks were added to appropriate wells already containing 50 μL of cells and medium to expose cells to the final concentrations of compounds required. 50”
as §4, §5

SK-MES-1 cells = assay: as above; assay type: cell-based; settings: 0 μM-30 μM, 72 hours, FIG. 10
Method: as §1, with “The PAK1 amplified” for “NF2 deficient”
as §2
as §3, with “50” for “50 μL of all PAK inhibitor compound 2× stocks were added to appropriate wells already containing 50 μL of cells and medium to expose cells to the final concentrations of compounds required. 50”
as §4, §5

PAK1 = PAK1 (Homo sapiens, UniProt Q13153); assay: In vitro PAK inhibition assay (SelectScreen, Ser/Thr 19 peptide); assay type: biochemical
Chain of PAK1 (Q13153 whole entry): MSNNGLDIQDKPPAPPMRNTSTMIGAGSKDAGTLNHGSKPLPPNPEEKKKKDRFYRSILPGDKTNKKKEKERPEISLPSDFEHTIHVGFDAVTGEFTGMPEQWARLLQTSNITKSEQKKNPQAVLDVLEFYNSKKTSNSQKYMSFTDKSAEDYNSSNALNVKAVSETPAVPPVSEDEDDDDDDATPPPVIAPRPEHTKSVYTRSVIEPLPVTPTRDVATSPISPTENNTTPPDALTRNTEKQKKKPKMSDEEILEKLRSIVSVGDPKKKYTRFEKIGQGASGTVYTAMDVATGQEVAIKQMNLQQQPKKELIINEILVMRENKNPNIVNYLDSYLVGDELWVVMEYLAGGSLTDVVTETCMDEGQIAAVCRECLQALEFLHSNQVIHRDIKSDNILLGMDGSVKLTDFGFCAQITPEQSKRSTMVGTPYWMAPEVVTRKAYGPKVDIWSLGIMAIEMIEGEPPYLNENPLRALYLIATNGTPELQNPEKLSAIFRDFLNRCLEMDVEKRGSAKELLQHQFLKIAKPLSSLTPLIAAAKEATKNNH
How it was run: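 Kinase reaction ran in 50 mM HEPES pH 7.5, 0.01% BRIJ-35, 10 mM MgCl2, 1 mM EGTA with Ser/Thr 19 peptide for 60 min at room temperature, followed by 60 min protease development. Fluorescence gave percent phosphorylation. Compounds were tested as 10-point, 3-fold titrations in 1% DMSO final.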

PAK2 (PAK65) = PAK2 (PAK65) (Homo sapiens, UniProt Q13177); assay: In vitro PAK inhibition assay (SelectScreen, Ser/Thr 20 peptide); assay type: biochemical
Chain of PAK2 (PAK65) (Q13177 whole entry): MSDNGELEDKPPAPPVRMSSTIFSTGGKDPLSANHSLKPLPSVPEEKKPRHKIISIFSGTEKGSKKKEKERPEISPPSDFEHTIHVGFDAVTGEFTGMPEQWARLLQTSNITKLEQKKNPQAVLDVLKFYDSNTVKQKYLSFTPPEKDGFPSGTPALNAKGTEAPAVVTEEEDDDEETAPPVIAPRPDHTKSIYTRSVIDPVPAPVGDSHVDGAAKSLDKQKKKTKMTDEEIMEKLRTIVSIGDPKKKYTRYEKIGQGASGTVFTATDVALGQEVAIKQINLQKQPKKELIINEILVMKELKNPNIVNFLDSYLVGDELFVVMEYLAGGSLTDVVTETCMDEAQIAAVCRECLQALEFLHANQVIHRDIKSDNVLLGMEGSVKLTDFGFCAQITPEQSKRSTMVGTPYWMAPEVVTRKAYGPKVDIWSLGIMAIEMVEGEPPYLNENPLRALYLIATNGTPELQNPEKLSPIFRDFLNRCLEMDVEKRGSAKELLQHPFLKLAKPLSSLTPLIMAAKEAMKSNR
How it was run: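 FRET-based peptide cleavage assay: 0.29-6 ng PAK2 and 2 μM Ser/Thr 20 peptide in 50 mM HEPES pH 7.5, 10 mM MgCl2, 1 mM EGTA, 0.01% BRIJ-35, 1% DMSO final. Kinase reaction 60 min at room temperature, then 60 min development; 10-point 3-fold titrations, percent phosphorylation from fluorescence.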

PAK3 = PAK3 (Homo sapiens, UniProt O75914); assay: as above; assay type: biochemical
Chain of PAK3 (O75914 whole entry): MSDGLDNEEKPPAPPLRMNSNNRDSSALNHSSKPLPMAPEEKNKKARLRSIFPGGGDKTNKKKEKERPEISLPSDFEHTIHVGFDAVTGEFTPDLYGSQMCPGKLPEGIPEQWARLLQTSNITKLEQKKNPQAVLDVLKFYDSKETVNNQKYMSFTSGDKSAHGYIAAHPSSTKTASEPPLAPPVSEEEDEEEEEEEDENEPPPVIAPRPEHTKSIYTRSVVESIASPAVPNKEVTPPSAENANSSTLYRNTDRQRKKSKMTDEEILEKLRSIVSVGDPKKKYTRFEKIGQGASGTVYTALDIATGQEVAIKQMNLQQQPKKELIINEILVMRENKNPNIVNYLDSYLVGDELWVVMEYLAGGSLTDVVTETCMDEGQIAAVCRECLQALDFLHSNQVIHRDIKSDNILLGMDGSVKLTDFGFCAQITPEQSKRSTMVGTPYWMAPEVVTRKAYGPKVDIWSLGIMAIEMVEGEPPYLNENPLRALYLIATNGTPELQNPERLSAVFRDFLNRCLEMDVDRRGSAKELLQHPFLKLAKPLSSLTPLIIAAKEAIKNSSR
How it was run: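 PAK3 phosphorylation of Ser/Thr 20 peptide in 50 mM HEPES pH 7.5, 0.01% BRIJ-35, 10 mM MgCl2, 1 mM EGTA, 1% DMSO final; 60 min at room temperature, then 60 min development reaction with fluorescence read-out. 10-point 3-fold titrations; percent phosphorylation from 0% and 100% phosphopeptide controls.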

PAK4 = PAK4 (Homo sapiens, UniProt O96013); assay: as above; assay type: biochemical
Chain of PAK4 (O96013 whole entry): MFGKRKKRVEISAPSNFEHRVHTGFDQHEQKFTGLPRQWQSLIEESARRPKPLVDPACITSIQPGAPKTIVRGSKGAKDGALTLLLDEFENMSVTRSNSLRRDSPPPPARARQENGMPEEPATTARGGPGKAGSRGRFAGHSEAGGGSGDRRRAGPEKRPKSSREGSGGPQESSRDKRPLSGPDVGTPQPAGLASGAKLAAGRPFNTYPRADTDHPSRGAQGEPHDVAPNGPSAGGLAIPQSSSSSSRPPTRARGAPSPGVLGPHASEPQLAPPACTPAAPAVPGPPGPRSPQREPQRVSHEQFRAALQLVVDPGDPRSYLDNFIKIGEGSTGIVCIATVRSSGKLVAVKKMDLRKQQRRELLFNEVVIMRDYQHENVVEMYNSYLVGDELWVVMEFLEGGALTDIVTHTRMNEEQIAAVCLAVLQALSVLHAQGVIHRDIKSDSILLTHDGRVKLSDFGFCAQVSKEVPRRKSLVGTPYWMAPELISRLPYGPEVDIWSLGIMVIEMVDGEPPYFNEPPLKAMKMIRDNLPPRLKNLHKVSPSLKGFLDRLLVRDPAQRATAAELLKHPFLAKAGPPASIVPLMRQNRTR
How it was run: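 FRET-based Ser/Thr 20 peptide phosphorylation: 0.1-0.75 ng PAK4, 2 μM peptide in 50 mM HEPES pH 7.5, 10 mM MgCl2, 1 mM EGTA, 0.01% BRIJ-35, 1% DMSO; 60 min at room temperature, then 60 min protease development. 10-point 3-fold titrations; IC50 from sigmoidal fit.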

Row | SMILES | pIC50 (PAK1) | pIC50 (PAK2 (PAK65)) | pIC50 (PAK3) | pIC50 (PAK4) | cell number compared to DMSO control treated cells (NF2−/− Schwannoma cells) | growth (%) with increasing concentration [1] | growth (%) with increasing concentration (EBC-1 cells) | growth (%) with increasing concentration (NCI-H520 cells) | growth (%) with increasing concentration (SK-MES-1 cells)
1 | CCn1c(=O)c(-c2ccc(-c3noc(C)n3)cc2Cl)cc2cnc(Nc3ccc(C4CCN(C)CC4)cc3)nc21 [Example 122] | – | – | – | – | reduction in cell number | the growth (%) of the cells reduced | the growth (%) decreased | the growth (%) decreased | the growth (%) decreased
2 | CCn1c(=O)c(-c2ccc(-c3cncc(C)n3)cc2Cl)cc2cnc(Nc3ccc(C4CCN(C)CC4)cc3)nc21 [Example 190] | – | – | – | – | reduction in cell number | – | – | – | –
3 | CCn1c(=O)c(-c2ccc(-c3cnc(C)s3)cc2Cl)cc2cnc(Nc3ccc(C4CCN(C)CC4)cc3)nc21 [Example 101] | – | – | – | – | reduction in cell number | – | – | – | –
4 | CCn1c(=O)c(-c2nc(C3CCNCC3)sc2C)cc2cnc(Nc3ccc(N4CCN(C)CC4)cc3)nc21 | 5.30 to 6.30 | < 5.30 | < 5.30 | ≤ 5.30 | – | – | – | – | –
5 | CCN1CCC(c2ccc(Nc3ncc4cc(-c5ccc(-c6ccc(C)nc6F)cc5Cl)c(=O)n(CC)c4n3)cc2F)CC1 | 6.30 to 7.30 | 6.30 to 7.30 | 6.30 to 7.30 | ≤ 5.30 | – | – | – | – | –
6 | CCn1c(=O)c(-c2ccc(-c3noc(C)n3)cc2)cc2cnc(Nc3ccc(N4CCN(C)CC4)cc3)nc21 | > 7.30 | 6.30 to 7.30 | 6.30 to 7.30 | ≤ 5.30 | – | – | – | – | –

Now from value to compound, other results behind:

Row | pIC50 (PAK1) | pIC50 (PAK2 (PAK65)) | pIC50 (PAK3) | pIC50 (PAK4) | SMILES | cell number compared to DMSO control treated cells (NF2−/− Schwannoma cells) | growth (%) with increasing concentration [1] | growth (%) with increasing concentration (EBC-1 cells) | growth (%) with increasing concentration (NCI-H520 cells) | growth (%) with increasing concentration (SK-MES-1 cells)
7 | 6.30 to 7.30 | 6.30 to 7.30 | < 5.30 | ≤ 5.30 | CCn1c(=O)c(-c2ccc(-c3ccnc(C(=O)NC)c3)cc2Cl)cc2cnc(Nc3ccc(C4CCNCC4)c(F)c3)nc21 | – | – | – | – | –
8 | > 7.30 | > 7.30 | > 7.30 | 6.30 to 7.30 | CCn1c(=O)c(-c2ccc(-c3noc(C)n3)cc2Cl)cc2cnc(Nc3ccc(N4CCNCC4)cc3)nc21 | – | – | – | – | –
9 | < 5.30 | < 5.30 | < 5.30 | ≤ 5.30 | CCn1c(=O)c(-c2ccc(C3CC3)s2)cc2cnc(Nc3ccc(N4CCN(C)CC4)cc3)nc21 | – | – | – | – | –
10 | > 7.30 | > 7.30 | 6.30 to 7.30 | ≤ 5.30 | CCn1c(=O)c(-c2ccc(-c3cccnc3C)cc2Cl)cc2cnc(Nc3ccc(CCN4CCCC4)cc3)nc21 | – | – | – | – | –
11 | 6.30 to 7.30 | 5.30 to 6.30 | 5.30 to 6.30 | ≤ 5.30 | CCn1c(=O)c(-c2ccc(-c3ccnn3C)cc2)cc2cnc(Nc3ccc(N4CCN(C)CC4)cc3)nc21 | – | – | – | – | –
12 | 5.30 to 6.30 | 5.30 to 6.30 | 5.30 to 6.30 | ≤ 5.30 | CCn1c(=O)c(-c2ccc(-c3noc(C)n3)nc2)cc2cnc(Nc3ccc(C4CCN(C)CC4)cc3)nc21 | – | – | – | – | –
13 | > 7.30 | > 7.30 | > 7.30 | ≤ 5.30 | CCn1c(=O)c(-c2ccc(-c3noc(C)n3)cc2Cl)cc2cnc(Nc3ccc(N4CCN(C)CC4)c(F)c3)nc21 | – | – | – | – | –
14 | > 7.30 | > 7.30 | > 7.30 | 5.30 to 6.30 | CCn1c(=O)c(-c2ccc(-c3ncncc3F)cc2Cl)cc2cnc(Nc3ccc(C4CCN(C)CC4)cc3)nc21 | – | – | – | – | –

Source: patent publication US20140163026A1, “8-ETHYL-6-(ARYL)PYRIDO[2,3-D]PYRIMIDIN-7(8H)-ONES FOR THE TREATMENT OF NERVOUS SYSTEM DISORDERS AND CANCER” (Afraxis Holdings, Inc., priority 2011, published 2014)
